Reference: patent US20040110228A1, “Combinatorial organic synthesis of unique biologically active compounds” (priority 2002, published 2004)
Where a SMILES comes first, the peptide text is derived from it. Where no end group is shown, it is not given here. [ ]: non-standard residue; d: D form. ξ: configuration not given here. ξW = NC(Cc1c[nH]c2ccccc12)C(=O)O; dTic = O=C(O)[C@H]1Cc2ccccc2CN1; Tic = O=C(O)[CH]1Cc2ccccc2CN1; ξF = NC(Cc1ccccc1)C(=O)O

Assays:
[1] = test system: bacterial strains, both gram positive and gram negative; assay: growth inhibition assays in microtiter plates (cell density at 600 nm); assay type: cell-based; settings: 101 μg/ml and 100 μg/ml; FIG. 57
Experimental: The eight macrocyclic compounds shown in FIGS. 55 were tested for their ability to bind to the HJ and inhibit bacterial growth in an in vivo assay. Growth inhibition assays were performed in microtiter plates, by comparing the growth of bacteria in the presence and absence of compounds. Cell density at 600 nm was determined for a series of bacterial strains, both gram positive and gram negative, in the presence and absence of macrocyclic compounds. […] Measurements were taken using a BioRad microtiter plate reader. […] The diluted cultures were shaken at 37° C. and optical densities were measured at 30-minute intervals in order to follow their growth. […]
In order to test the inhibitory potency of the peptides, cell growth assays were performed. […] The cell growth assays were performed in microtiter plates; measurements are taken using a BioRad microtiter plate reader.
Overnight bacterial cultures were diluted 1:20 into media and each test compound was added in no more than 10% of the volume of the final suspension. […] The diluted cultures were shaken at 37° C. and optical densities were measured at 30 minute intervals to follow their growth. […]
Four linear heptamers prepared according to FIGS. 63 were tested for their bacteria growth inhibition. […] Measurements were taken using a BioRad microtiter plate reader. […]

[2] = test system: Holliday junction (HJ) intermediate; assay: in vitro Holliday junction trapping assay (recombination of radiolabeled and unlabeled DNA substrates); assay type: biochemical; settings: 0.01 mg/ml concentrations of peptides; FIG. 56
Experimental: The eight macrocyclic compounds shown in FIGS. 55 were tested for their ability to bind to the HJ in an in vitro assay. The assay employs a recombination reaction between one radiolabeled double-stranded DNA substrate and an unlabeled partner DNA substrate. Successful recombination gives recombination products and very small amounts of HJ intermediate. A previously identified linear peptide dimer of […] was used as a positive control because it was known to accumulate HJs, as described in […] et al., 2000, supra). During the recombination reaction, two initial DNA cleavage and ligation reactions must take place to form the junction, and two subsequent DNA cleavage and ligation reactions resolve the HJs into double stranded recombination products.

[3] = test system: Bare Lymphocyte Syndrome (BLS) cell line; assay type: cell-based
Experimental: Toxicity of peptides KWWCRW and WKHYNY was determined by testing the inhibition of a eukaryotic cell line using a vital stain. The peptides were determined to not be cytotoxic in a non-adherent eukaryotic cell line, Bare Lymphocyte Syndrome (BLS), at concentrations below 250 mg/ml. (Allicotti et al, Manuscript in Preparation). The MTT cytotoxicity assay was used to measure cytotoxicity of the class B synergimycin compounds (Mosmann, Immunol. Methods 65:55-63 (1983)). In this assay, 3-(4,5-dimethylthiazol-2-yl)-2,5-diphenyl tetrazolium bromide (MTT) is converted by live cells into the purple compound formazan. The amount of formazan produced is measured at OD570. The absorbance of the sample wells is compared to the absorbance of the control wells. The readings are used to calculate an IC50 for each peptide. This value represents the concentration of each peptide that reduces the growth of the BLS cells to 50% of the maximum growth measured in the controls.

Int protein [4] = biological target: T1, Int protein (Escherichia phage lambda, UniProt P03700); assay: in vitro recombination reaction catalysed by the Int protein (attL/attR substrates, gel); assay type: biochemical
Salmonella typhimurium = assay: cell growth assay (OD600); assay type: cell-based; settings: Salmonella enterica serovar Typhimurium Ames strain and LT2 strain; peptides in the medium
Int protein [5] = biological target: T1, Int protein; settings: Cassell et al. 2000; cited from earlier work

T1 sequence (P0A6Y1 whole entry): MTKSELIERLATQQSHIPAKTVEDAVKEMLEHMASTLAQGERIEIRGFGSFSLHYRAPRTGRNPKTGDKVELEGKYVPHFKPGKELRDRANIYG
T1 sequence (P03699 whole entry, further chain): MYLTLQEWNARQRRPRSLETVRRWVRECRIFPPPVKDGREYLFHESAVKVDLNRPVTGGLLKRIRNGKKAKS
T1 sequence (P0A6X7 whole entry, further chain): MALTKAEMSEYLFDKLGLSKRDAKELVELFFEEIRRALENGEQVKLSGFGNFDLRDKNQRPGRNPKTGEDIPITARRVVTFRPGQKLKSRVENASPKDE
T1 sequence (P03700 whole entry): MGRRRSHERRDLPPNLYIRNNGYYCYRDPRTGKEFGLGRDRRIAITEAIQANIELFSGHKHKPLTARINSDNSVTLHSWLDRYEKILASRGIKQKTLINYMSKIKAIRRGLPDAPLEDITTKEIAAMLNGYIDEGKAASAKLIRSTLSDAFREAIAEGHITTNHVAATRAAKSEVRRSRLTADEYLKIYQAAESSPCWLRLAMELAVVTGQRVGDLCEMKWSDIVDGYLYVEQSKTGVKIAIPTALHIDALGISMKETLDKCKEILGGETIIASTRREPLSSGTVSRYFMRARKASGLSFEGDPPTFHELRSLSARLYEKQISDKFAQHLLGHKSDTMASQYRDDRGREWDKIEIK

O=C1CNC(=O)C(Cc2c[nH]c3ccccc23)NC(=O)C(Cc2ccccc2)NC(=O)CNC(=O)C(Cc2c[nH]c3ccccc23)NC(=O)C(Cc2ccccc2)N1 (stereo not shown) [H] (cyclo(GFWGFW); configuration not given here)
bacterial growth inhibition by macrocyclic compounds [1]: greatest level of activity

O=C1NC(Cc2c[nH]c3ccccc23)C(=O)N2Cc3ccccc3C[C@@H]2C(=O)NC(Cc2ccccc2)C(=O)NC(Cc2c[nH]c3ccccc23)C(=O)N2Cc3ccccc3C[C@@H]2C(=O)NC1Cc1ccccc1 (stereo partly shown) [E] (cyclo([dTic][ξF][ξW][dTic][ξF][ξW]))
accumulation of HJ intermediates / binding to the HJ [2]: particularly active

O=C1NC(Cc2ccccc2)C(=O)N2Cc3ccccc3C[C@@H]2C(=O)NC(Cc2ccccc2)C(=O)NC(Cc2ccccc2)C(=O)N2Cc3ccccc3C[C@@H]2C(=O)NC1Cc1ccccc1 (stereo partly shown) [D] (cyclo([dTic][ξF][ξF][dTic][ξF][ξF]))
accumulation of HJ intermediates / binding to the HJ [2]: particularly active

O=C1NC(Cc2ccccc2)C(=O)N2Cc3ccccc3CC2C(=O)NC(Cc2ccccc2)C(=O)NC(Cc2ccccc2)C(=O)N2Cc3ccccc3CC2C(=O)NC1Cc1ccccc1 (stereo not shown) [A] (cyclo(FF[Tic]FF[Tic]); configuration not given here)
accumulation of HJ intermediates / binding to the HJ [2]: particularly active

KWWCRW [KWWCRW, LysTrpTrpCysArgTrp]
concentrations at which not cytotoxic [3]: below 250 mg/ml

O=C1NC(Cc2c[nH]c3ccccc23)C(=O)N2Cc3ccccc3CC2C(=O)NC(Cc2ccccc2)C(=O)NC(Cc2c[nH]c3ccccc23)C(=O)N2Cc3ccccc3CC2C(=O)NC1Cc1ccccc1 (stereo not shown) [B] (cyclo(FW[Tic]FW[Tic]); configuration not given here)
accumulation of HJ intermediates / binding to the HJ [2]: particularly active

WKHYNY [WKHYNY]
concentrations at which not cytotoxic [3]: below 250 mg/ml

WRWYCR [WRWYCR, TrpArgTrpTyrCysArg]
potency among peptides of a screen for site-specific recombination inhibitors (Int protein [4]): the most potent | inhibition of bacterial cell growth, FIG. 12 (Salmonella typhimurium): inhibition of bacterial cell growth

TrpLys(His or Ala)TyrAsnTyr [WK(HorA)YNY]
potency among Holliday junction-stabilizing peptide families (Int protein [5]): the most potent
